Paper PMC7072329, “Discovery of Kynurenines Containing Oligopeptides as Potent Opioid Receptor Agonists” (Biomolecules, 2020)
Where two headings read alike, the source gives them in different places. Where a SMILES comes first, the peptide text is derived from it. [ ]: non-standard residue; d: D form. Kyn = Nc1ccccc1C(=O)C[C@H](N)C(=O)O

Assays:
NMDA receptor [1] = test: [3H]MK-801 competition binding, rat brain membrane; conditions: read-out: Ki + S.E.M., displacement of [3H]MK-801
μ, δ, κ-receptors = tested on: μ, δ, κ-receptors; set-up: method as in PMID 25478797; conditions: cited from earlier work
NMDA receptor [2] = tested on: NMDA receptor; set-up: method as in earlier work; conditions: cited from earlier work
κ-opioid receptor = target: T1, κ-opioid receptor (Cavia porcellus, UniProt P41144); test: biochemical; type: binding; conditions: KOR; guinea pig brain membrane; from IC50 by Cheng–Prusoff; read-out: Ki + S.E.M., displacement of [3H]HS665
T1 construct: aliquots of frozen rat and guinea pig brain membrane homogenates were thawed and suspended in 50 mM Tris-HCl buffer; from tissue; host or cells: guinea pig brain membrane homogenate

δ-opioid receptor = target: T2, δ-opioid receptor (Rattus norvegicus, UniProt P33533); test: biochemical; type: binding; conditions: DOR; rat brain membrane; from IC50 by Cheng–Prusoff; read-out: Ki + S.E.M., displacement of [3H]Ile5,6Delt II
T2 construct: aliquots of frozen rat and guinea pig brain membrane homogenates were thawed and suspended in 50 mM Tris-HCl buffer; from tissue; host or cells: Wistar rat brain membrane homogenate

G-protein [3] = test: functional [35S]GTPγS binding, rat brain membrane homogenates; type: biochemical; conditions: for Potency Log EC50 ± S.E.M. / Maximal Stimulation (Efficacy) Emax ± S.E.M.: dose-response curves; for Maximal Stimulation (Efficacy) Emax ± S.E.M.: basal = 100%; for Emax + S.E.M., Ligand: ligand alone, bar graphs Figure S3
Method: (§1) Rats and guinea pigs were decapitated, and their brains were quickly removed. The brains were used for membrane preparation following the procedure reported by Benyhe for binding and [^35S]GTPγS binding experiments, in agreement with the protocol of Zádor et al..
(§2) Homogenization of brains was performed in 30 volumes (v/w) of ice-cold 50 mM Tris-HCl pH 7.4 buffer with a Teflon-glass Braun homogenizer at 1500 rpm. The centrifuge was settled at 18,000 rpm for 20 min at 4 °C, the resulting supernatant discarded, and the pellet taken up in the original volume of Tris-HCl buffer. Incubation of homogenate at 37 °C for 30 min was performed in a shaking water-bath. Five volumes of 50 mM Tris-HCl pH 7.4 buffer were used to suspend the final pellet at −80 °C. For the [^35S]GTPγS binding experiments, the brains were homogenized with a Dounce in 5 volumes (v/w) of ice-cold TEM (Tris-HCl, EGTA, MgCl2) at −80 °C. The protein content of the membrane preparation was determined by the method of Bradford, BSA being used as a standard.
(§3) The functional [^35S]GTPγS binding experiments were performed as previously described. Briefly the membrane homogenates were incubated at 30 °C for 60 min in Tris-EGTA buffer (pH 7.4) composed of 50 mM Tris-HCl, 1 mM EGTA, 3 mM MgCl2, 100 mM NaCl, containing 20 MBq/0.05 cm^3 [^35S]GTPγS (0.05 nM) and increasing concentrations (10^−10 to 10^−5 M) of ligands. The experiments were performed in the presence of excess GDP (30 μM) in a final volume of 1 mL. Total binding was measured in the absence of test compounds, non-specific binding was determined in the presence of 10 μM unlabeled GTPγS. The reaction was terminated by rapid filtration under vacuum and washed three times with 5 mL ice-cold 50 mM Tris-HCl (pH 7.4) buffer through Whatman GF/B glass fibers. The radioactivity of the filters was detected in an UltimaGold^TM MV aqueous scintillation cocktail with a Packard Tricarb 2300TR liquid scintillation counter.
(§4) Experimental data are presented as means ± S.E.M. Sigmoid dose-response curves were fitted with GraphPad Prism 5.0 (GraphPad Prism Software Inc., San Diego, CA, USA). An unpaired t-test with two-tailed p value was performed to determine the significance level. In the competition binding assays, the ‘One site competition’ fitting was used to establish the equilibrium binding affinity (Ki value).
[35S]GTPγS binding assay in rat brain membrane homogenates. Figure S2 represents the specific binding of [35S]GTPγS in percentage in presence of increasing concentrations (10-10 - 10^-5 M) of the indicated ligands. “Total” on the x-axis indicates the basal activity of the monitored G-protein, which is measured in the absence of the ligands and represents the total specific binding of [35S]GTPγS. The level of basal activity was defined as 100% and it is presented with a dotted line. Points represent means ± S.E.M. for at least three experiments […]
(§5) Figure S3. The effect of novel oligopeptides on G-protein activity in [35S]GTPγS binding assays in the absence or presence of the selective MOR antagonist cyprodime (Cyp) and the selective DOR antagonist naltrindole (NTI) in rat brain membrane homogenates (Figure A) and the selective KOR antagonist norbinaltorphine (nor-BNI) in guinea pig brain membrane homogenates (Figure B). The level of basal activity was defined as 100% and it is presented with a dotted line. Points represent means ± S.E.M. for at least three experiments performed

G-protein [4] = test: functional [35S]GTPγS binding, guinea pig brain membrane homogenates; type: biochemical; conditions: ligand alone
Method: as §1, §2, §3, §4
as §5, with “The level of basal activity was defined as 100% and it is presented with a dotted line. Points represent means ± S.E.M. for at least three experiments performed” left out

CD-1 male mice [5] = test: tail flick test; type: in vivo; conditions: i.c.v., 10 μg/10 μL, 15 to 120 min
Method: (§6) In our experiments, we used CD-1 male mice (Harlan, Italy, 25–30 g) maintained in colony, housed in cages (7 mice per cage) under standard light/dark cycle (from 7:00 a.m. to 7:00 p.m.), temperature (21 ± 1 °C) and relative humidity (60% ± 10%) for at least 1 week. Food and water were available ad libitum. The Service for Biotechnology and Animal Welfare of the Istituto Superiore di Sanità and the Italian Ministry of Health authorized the experimental protocol according to Legislative Decree 26/14.
DMSO was purchased from Merck (Rome, Italy). Peptides solutions were freshly prepared using saline containing 0.9% NaCl and DMSO in the ratio DMSO/saline 1:5 v/v every experimental day. […]
The tail flick latency was obtained using a commercial unit (Ugo Basile, Gemonio, Italy), consisting of an infrared radiant light source (100 W, 15 V bulb) focused onto a photocell utilizing an aluminum parabolic mirror. […] Radiant heat was focused 3–4 cm from the tip of the tail, and the latency (s) of the tail withdrawal to the thermal stimulus was recorded. […] The baseline latency was calculated as mean of three readings recorded before testing at intervals of 15 min and the time course of latency determined at 15, 30, 45, 60, 90, and 120 min after treatment. […]
Experimental data were expressed as mean ± s.e.m. […]

CD-1 male mice [6] = test: formalin test; type: in vivo; conditions: s.c. in hind paw, 100 μg/20 μL, 15 min before formalin
Method: as §6
DMSO was purchased from Merck (Rome, Italy). Peptides solutions were freshly prepared using saline containing 0.9% NaCl and DMSO in the ratio DMSO/saline 1:5 v/v every experimental day. These solutions were injected at a volume of 10 μL/mouse for intracerebroventricular (i.c.v.) administrations or at a volume of 20 μL/mouse for subcutaneous administrations.
In the formalin test, the injection of a dilute solution of formalin (1%, 20 μL/paw) into the dorsal surface of the mouse hind paw evoked biphasic nociceptive behavioral responses, such as licking, biting the injected paw, or both, occurring from 0 to 10 min after formalin injection (the early phase) and a prolonged phase, occurring from 15 to 40 min (the late phase). Before the test, mice were individually placed in a Plexiglas observation cage (30 × 14 × 12 cm) for one hour, to acclimatize to the testing environment. The total time the animal spent licking or biting its paw during the early and late phase of formalin-induced nociception was recorded.
Experimental data were expressed as mean ± s.e.m. In the tail flick test, significant differences among the groups were evaluated with two-way ANOVA followed by Sidak’s multiple comparisons test. Formalin test data were analyzed by using one-way ANOVA, followed by Holm–Sidak’s multiple comparisons test. […] Statistical significance was set at p < 0.05. The data and statistical analysis comply with the recommendations on experimental design and analysis in pharmacology.
Early phase represents the formalin-induced nociceptive behavior recorded from 0 to 10 min after formalin injection; late phase is for the formalin-induced nociceptive behavior recorded from 15 to 40 min after formalin injection. V is for vehicle-treated animals. Statistical analysis: one-way ANOVA followed by Holm–Sidak’s multiple comparisons test. ** is for p < 0.01 and *** is for p < 0.001 vs. V. n = 7.

[7] = set-up: method as in PMID 21598333; conditions: cited from earlier work
[8] = NMDA system, rat brain membrane, from IC50 by Cheng–Prusoff

T1 sequence (P41144 whole entry): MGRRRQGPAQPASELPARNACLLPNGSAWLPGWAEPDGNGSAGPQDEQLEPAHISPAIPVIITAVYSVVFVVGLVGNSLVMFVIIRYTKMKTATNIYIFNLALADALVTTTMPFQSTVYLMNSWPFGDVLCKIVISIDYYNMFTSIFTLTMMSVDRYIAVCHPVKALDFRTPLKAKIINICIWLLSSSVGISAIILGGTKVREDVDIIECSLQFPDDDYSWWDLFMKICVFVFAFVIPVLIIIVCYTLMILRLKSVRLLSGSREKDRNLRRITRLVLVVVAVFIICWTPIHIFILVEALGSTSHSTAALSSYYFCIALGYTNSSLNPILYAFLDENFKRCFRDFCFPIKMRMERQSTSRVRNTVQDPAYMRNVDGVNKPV
T2 sequence (P33533 whole entry): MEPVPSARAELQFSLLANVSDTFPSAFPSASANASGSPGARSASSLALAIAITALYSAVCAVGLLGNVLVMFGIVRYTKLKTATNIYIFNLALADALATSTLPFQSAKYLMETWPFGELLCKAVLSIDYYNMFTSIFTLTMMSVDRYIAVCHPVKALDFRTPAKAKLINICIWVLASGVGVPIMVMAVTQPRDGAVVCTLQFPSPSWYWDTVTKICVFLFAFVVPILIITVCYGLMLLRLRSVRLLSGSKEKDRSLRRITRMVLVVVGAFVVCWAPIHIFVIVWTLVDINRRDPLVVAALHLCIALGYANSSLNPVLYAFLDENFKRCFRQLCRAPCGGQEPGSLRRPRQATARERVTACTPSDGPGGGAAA

Compound: O=C(O)c1cc(=O)c2ccccc2[nH]1 [KYNA, kynurenic acid]
- Ki (NMDA receptor [1]; [8]): > 10 µM
- direct binding to μ, δ, κ-receptors in vitro (μ, δ, κ-receptors): did not directly bind
- affinity for NMDA receptor (NMDA receptor [2]): micromolar affinity

Compound: C[C@@H](NC(=O)[C@@H](N)Cc1ccc(O)cc1)C(=O)NCC(=O)N[C@@H](Cc1ccccc1)C(=O)N[C@@H](CC(=O)c1ccccc1N)C(=O)O [Peptide K5] (H-Y[dA]GF[Kyn]-OH)
- Ki (κ-opioid receptor): > 10 µM

Compound: NC(=O)[C@H](Cc1ccccc1)NC(=O)[C@H](CC(=O)c1ccccc1N)NC(=O)[C@@H]1CCCN1C(=O)[C@@H](N)Cc1ccc(O)cc1 [Peptide K2]
- Ki (δ-opioid receptor): > 10 µM
- Ki (κ-opioid receptor): 1.043 ± 0.0003 µM
- Ki (NMDA receptor [1]): > 10 µM
- Potency Log EC50 ± S.E.M. (G-protein [3]): −7.535 ± 0.354
- Maximal Stimulation (Efficacy) Emax ± S.E.M. (G-protein [3]): 121.6 ± 2.5%
- Emax + S.E.M., Ligand (G-protein [3]): 129.9 ± 8.2%
- Emax + S.E.M., Ligand (G-protein [4]): 92.8 ± 2.0%

Compound: Nc1ccccc1C(=O)C[C@H](N)C(=O)O [L-kyn, L-kynurenine, reference compound]
- Ki (NMDA receptor [1]; [8]): > 10 µM

Compound: C[C@@H](NC(=O)[C@@H](N)Cc1ccc(O)cc1)C(=O)NCC(=O)N(C)[C@@H](Cc1ccccc1)C(=O)NCCO [DAMGO, Tyr-D-Ala-Gly-(NMe)Phe-Gly-ol, reference compound]
- effect on time of response to thermal nociceptive stimuli (tail flick) (CD-1 male mice [5]): greatly increase the time of response to thermal nociceptive stimuli
- formalin-induced nociceptive behavior, early phase (CD-1 male mice [6]; 0 to 10 min): reduction of the nociceptive behavior both early and late
- formalin-induced nociceptive behavior, late phase (CD-1 male mice [6]; 15 to 40 min): reduction of the nociceptive behavior both early and late

Compound: NC(=O)[C@H](CC(=O)c1ccccc1N)NC(=O)[C@H](Cc1ccccc1)NC(=O)[C@@H]1CCCN1C(=O)[C@@H](N)Cc1ccc(O)cc1 [Peptide K3] (H-YPF[Kyn]-NH2)
- Ki (δ-opioid receptor): 0.159 ± 0.0016 µM
- Ki (κ-opioid receptor): > 10 µM
- Ki (NMDA receptor [1]): > 10 µM
- Potency Log EC50 ± S.E.M. (G-protein [3]): −6.993 ± 0.422
- Maximal Stimulation (Efficacy) Emax ± S.E.M. (G-protein [3]): 114.0 ± 2.1%
- Emax + S.E.M., Ligand (G-protein [3]): 118.9 ± 3.0%
- Emax + S.E.M., Ligand (G-protein [4]): 95.2 ± 2.2%

Compound: FP-Kyn-L-NH2
- concentration with opioid activity [7]: 10^−7 M

Compound: COC(=O)[C@H](CC(=O)c1ccccc1N)NC(=O)[C@H](Cc1ccccc1)NC(=O)CNC(=O)[C@@H](C)NC(=O)[C@@H](N)Cc1ccc(O)cc1 [Peptide K4] (H-Y[dA]GF[Kyn]-OMe)
- Ki (κ-opioid receptor): > 10 µM
- Ki (NMDA receptor [1]): > 10 µM
- Potency Log EC50 ± S.E.M. (G-protein [3]): −6.073 ± 0.172
- Maximal Stimulation (Efficacy) Emax ± S.E.M. (G-protein [3]): 155.5 ± 4.8%
- Emax + S.E.M., Ligand (G-protein [3]): 160.6 ± 5.7%
- Emax + S.E.M., Ligand (G-protein [4]): 125.2 ± 2.0%

Compound: CN(C)CCNC(=O)c1cc(=O)c2ccccc2[nH]1.Cl [KYNA1]
- direct binding to μ, δ, κ-receptors in vitro (μ, δ, κ-receptors): did not directly bind
